PubChem BioAssay (NCI)
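Exposure lasted 48 hours, with cells grown in 96-well plates and compounds tested at five concentrations. GI50 marks 50% less growth. At the TGI there is no net growth.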

Columns and labels:
Test in all cases: NCI tumour cell line growth inhibition, 48 h
SF-539 CNS = tested on: SF-539 CNS
COLO 205 colon = tested on: COLO 205 colon
SK-MEL-5 melanoma = tested on: SK-MEL-5 melanoma
T-47D breast = tested on: T-47D breast
UACC-257 melanoma = tested on: UACC-257 melanoma
OVCAR-8 ovarian = tested on: OVCAR-8 ovarian
UACC-62 melanoma = tested on: UACC-62 melanoma
NCI-H460 lung = tested on: NCI-H460 lung
EKVX NSCLC = tested on: EKVX NSCLC
NCI-H23 lung = tested on: NCI-H23 lung
SK-MEL-2 melanoma = tested on: SK-MEL-2 melanoma
A498 renal = tested on: A498 renal
DU-145 prostate = tested on: DU-145 prostate
SW-620 colon = tested on: SW-620 colon
HCC-2998 colon = tested on: HCC-2998 colon
MOLT-4 leukemia = tested on: MOLT-4 leukemia
CCRF-CEM leukemia = tested on: CCRF-CEM leukemia
TK-10 renal = tested on: TK-10 renal
MALME-3M melanoma = tested on: MALME-3M melanoma
MCF7 breast = tested on: MCF7 breast
U251 CNS = tested on: U251 CNS
HS 578T breast = tested on: HS 578T breast
LOX IMVI melanoma = tested on: LOX IMVI melanoma
HCT-15 colon = tested on: HCT-15 colon
K-562 leukemia = tested on: K-562 leukemia
KM12 colon = tested on: KM12 colon
786-0 renal = tested on: 786-0 renal
NCI/ADR-RES ovarian = tested on: NCI/ADR-RES ovarian
OVCAR-5 ovarian = tested on: OVCAR-5 ovarian
CAKI-1 renal = tested on: CAKI-1 renal
UO-31 renal = tested on: UO-31 renal
SR leukemia = tested on: SR leukemia
HOP-92 NSCLC = tested on: HOP-92 NSCLC
HCT-116 colon = tested on: HCT-116 colon
RPMI-8226 leukemia = tested on: RPMI-8226 leukemia
NCI-H226 lung = tested on: NCI-H226 lung
RXF 393 renal = tested on: RXF 393 renal
SF-268 CNS = tested on: SF-268 CNS
SF-295 CNS = tested on: SF-295 CNS
HOP-62 NSCLC = tested on: HOP-62 NSCLC
SNB-75 CNS = tested on: SNB-75 CNS
ACHN renal = tested on: ACHN renal
M14 melanoma = tested on: M14 melanoma
PC-3 prostate = tested on: PC-3 prostate
BT-549 breast = tested on: BT-549 breast
SK-OV-3 ovarian = tested on: SK-OV-3 ovarian
SN12C renal = tested on: SN12C renal
SK-MEL-28 melanoma = tested on: SK-MEL-28 melanoma
SNB-19 CNS = tested on: SNB-19 CNS
MDA-MB-231 breast = tested on: MDA-MB-231 breast
A549 NSCLC = tested on: A549 NSCLC
HT29 colon = tested on: HT29 colon
HL-60(TB) leukemia = tested on: HL-60(TB) leukemia

For `NCCCn1c2c(c3ccc([N+](=O)[O-])cc3c1=O)C(=O)c1cc(Cl)ccc1-2`, the GI50 (SF-539 CNS) was under 10 nM, the TGI (SF-539 CNS) was 61.3 nM and the GI50 (COLO 205 colon) was under 10 nM. For the same molecule, the TGI (COLO 205 colon) was 313 nM, the GI50 (SK-MEL-5 melanoma) was under 15.1 nM and the TGI (SK-MEL-5 melanoma) was 250 nM. For the same molecule, the GI50 (T-47D breast) was under 10 nM, the TGI (T-47D breast) was 1200 nM and the GI50 (UACC-257 melanoma) was 52.6 nM. For the same molecule, the TGI (UACC-257 melanoma) was 1310 nM, the GI50 (OVCAR-8 ovarian) was under 10 nM and the TGI (OVCAR-8 ovarian) was 109 nM. The GI50 (UACC-62 melanoma) was under 10 nM, the TGI (UACC-62 melanoma) was 69.6 nM and the GI50 (NCI-H460 lung) was under 10 nM. The TGI (NCI-H460 lung) was 128 nM, the GI50 (EKVX NSCLC) was 24.1 nM and the TGI (EKVX NSCLC) was 189 nM. It also gave a GI50 (NCI-H23 lung) of under 10 nM, a TGI (NCI-H23 lung) of 55 nM and a GI50 (SK-MEL-2 melanoma) of 113 nM. The TGI (SK-MEL-2 melanoma) was 275 nM, the GI50 (A498 renal) was 27.4 nM and the TGI (A498 renal) was 596 nM. It also gave a GI50 (DU-145 prostate) of under 10 nM, a TGI (DU-145 prostate) of 115 nM and a GI50 (SW-620 colon) of under 10 nM. The TGI (SW-620 colon) was 213 nM, the GI50 (HCC-2998 colon) was under 13.8 nM and the TGI (HCC-2998 colon) was 119 nM. For the same molecule, the GI50 (MOLT-4 leukemia) was under 10 nM, the TGI (MOLT-4 leukemia) was under 11.4 nM and the GI50 (CCRF-CEM leukemia) was under 10 nM. The TGI (CCRF-CEM leukemia) was 10.4 nM, the GI50 (TK-10 renal) was 379 nM and the TGI (TK-10 renal) was 811 nM. It also gave a GI50 (MALME-3M melanoma) of under 10 nM, a TGI (MALME-3M melanoma) of 195 nM and a GI50 (MCF7 breast) of under 10 nM. It also gave a TGI (MCF7 breast) of 141 nM, a GI50 (U251 CNS) of under 10 nM and a TGI (U251 CNS) of 123 nM. For the same molecule, the GI50 (HS 578T breast) was 1110 nM, the TGI (HS 578T breast) was 2800 nM and the GI50 (LOX IMVI melanoma) was under 10 nM. It also gave a TGI (LOX IMVI melanoma) of 117 nM, a GI50 (HCT-15 colon) of 28.5 nM and a TGI (HCT-15 colon) of 208 nM. For the same molecule, the GI50 (K-562 leukemia) was under 10 nM, the TGI (K-562 leukemia) was 41.1 nM and the GI50 (KM12 colon) was under 28.3 nM. For the same molecule, the TGI (KM12 colon) was 174 nM, the GI50 (786-0 renal) was under 10 nM and the TGI (786-0 renal) was 36.9 nM. The GI50 (NCI/ADR-RES ovarian) was under 10 nM, the TGI (NCI/ADR-RES ovarian) was 292 nM and the GI50 (OVCAR-5 ovarian) was 26.5 nM. It also gave a TGI (OVCAR-5 ovarian) of 193 nM, a GI50 (CAKI-1 renal) of under 10 nM and a TGI (CAKI-1 renal) of 317 nM. For the same molecule, the GI50 (UO-31 renal) was under 10 nM, the TGI (UO-31 renal) was 122 nM and the GI50 (SR leukemia) was under 10 nM. The TGI (SR leukemia) was 32.5 nM, the GI50 (HOP-92 NSCLC) was 54.2 nM and the TGI (HOP-92 NSCLC) was 544 nM. It also gave a GI50 (HCT-116 colon) of under 10 nM, a TGI (HCT-116 colon) of 18.2 nM and a GI50 (RPMI-8226 leukemia) of under 10 nM. For the same molecule, the TGI (RPMI-8226 leukemia) was 36.7 nM, the GI50 (NCI-H226 lung) was under 10 nM and the TGI (NCI-H226 lung) was 141 nM. It also gave a GI50 (RXF 393 renal) of under 10 nM, a TGI (RXF 393 renal) of 118 nM and a GI50 (SF-268 CNS) of under 10 nM. The TGI (SF-268 CNS) was 391 nM, the GI50 (SF-295 CNS) was under 10 nM and the TGI (SF-295 CNS) was 1370 nM. The GI50 (HOP-62 NSCLC) was under 10 nM, the TGI (HOP-62 NSCLC) was 123 nM and the GI50 (SNB-75 CNS) was under 10 nM. For the same molecule, the TGI (SNB-75 CNS) was 1200 nM, the GI50 (ACHN renal) was under 10 nM and the TGI (ACHN renal) was 124 nM. For the same molecule, the GI50 (M14 melanoma) was under 10 nM, the TGI (M14 melanoma) was 31.8 nM and the GI50 (PC-3 prostate) was under 16.3 nM. The TGI (PC-3 prostate) was 381 nM, the GI50 (BT-549 breast) was 63.5 nM and the TGI (BT-549 breast) was 1400 nM. The GI50 (SK-OV-3 ovarian) was under 10 nM, the TGI (SK-OV-3 ovarian) was 197 nM and the GI50 (SN12C renal) was under 10 nM. The TGI (SN12C renal) was 146 nM, the GI50 (SK-MEL-28 melanoma) was 126 nM and the TGI (SK-MEL-28 melanoma) was 1670 nM. The GI50 (SNB-19 CNS) was under 10 nM, the TGI (SNB-19 CNS) was 227 nM and the GI50 (MDA-MB-231 breast) was 218 nM. The TGI (MDA-MB-231 breast) was 640 nM, the GI50 (A549 NSCLC) was under 10 nM and the TGI (A549 NSCLC) was 116 nM. The GI50 (HT29 colon) was under 10 nM, the TGI (HT29 colon) was 225 nM and the GI50 (HL-60(TB) leukemia) was under 10 nM. For the same molecule, the TGI (HL-60(TB) leukemia) was under 16 nM.
